Converted amounts (≈) assume the structure as drawn.

Test in all cases: ≥ marks a high value that may be exact or a test limit, other limits are often not marked, values filed in µg/mL are converted to µM
Assay [1] concerns Escherichia coli ATCC 25922.
Assay [2] relates to Staphylococcus aureus ATCC 25923.
Assay [3] has as its system Candida albicans ATCC 2002.
The subject of assay [4] is Pseudomonas aeruginosa CMCCB 10104.
For assay [5], the system named is Staphylococcus aureus NCTC 10788.
Assay [6] concerns Candida albicans NCPF 1467.
The subject of assay [7] is Escherichia coli NCTC 10418.
The test system of a further assay is Bacillus subtilis.
Assay [8] has as its system Escherichia coli DH5alpha.
In assay [9] the test system is Pseudomonas aeruginosa ATCC 27853.

As a reminder, the MIC is the lowest concentration that inhibits growth of the organism. Higher therefore signals a less susceptible organism. `CC[C@H](C)[C@H](NC(=O)[C@H](Cc1ccc(O)cc1)NC(=O)[C@H](CO)NC(=O)[C@H](CS)NC(=O)[C@H](Cc1ccccc1)NC(=O)[C@H](CC(C)C)NC(=O)[C@H](CC(N)=O)NC(=O)[C@H](CCC(=O)O)NC(=O)[C@H](CCSC)NC(=O)[C@H](CC(C)C)NC(=O)[C@@H](NC(=O)[C@@H](NC(=O)[C@H](CC(=O)O)NC(=O)[C@H](CCC(=O)O)NC(=O)[C@H](CCC(=O)O)NC(=O)[C@H](C)NC(=O)[C@H](CC(N)=O)NC(=O)[C@@H](N)CCC(=O)O)[C@@H](C)CC)C(C)C)C(=O)N[C@H](C(=O)NCC(=O)N[C@@H](CO)C(=O)N[C@@H](C)C(=O)N[C@@H](CC(=O)O)C(=O)N[C@@H](CO)C(=O)N[C@@H](Cc1ccccc1)C(=O)N[C@@H](Cc1c[nH]c2ccccc12)C(=O)N[C@H](C(=O)O)[C@@H](C)O)C(C)C` [ENAEEDIVLMENLFCSYIVGSADSFWT]: the MIC in [1] is over 64.9 µM; in assay [2], over 64.9 µM; in assay [3], at least 64.9 µM; in [4], at least 64.9 µM.
Consider `CC[C@H](C)[C@H](NC(=O)[C@H](CC(N)=O)NC(=O)[C@H](Cc1ccccc1)NC(=O)[C@H](CCSC)NC(=O)[C@H](CC(N)=O)NC(=O)[C@@H](N)CCC(=O)O)C(=O)N[C@@H](CCCCN)C(=O)N[C@@H](CO)C(=O)N[C@@H](CO)C(=O)N[C@H](C(=O)N[C@@H](CCC(=O)O)C(=O)N[C@@H](CO)C(=O)N[C@@H](CC(=O)O)C(=O)N[C@@H](CO)C(=O)N[C@@H](Cc1ccccc1)C(=O)N[C@@H](Cc1c[nH]c2ccccc12)C(=O)NCC(=O)O)C(C)C` [ENMFNIKSSVESDSFWG], for which the MIC in [1] is over 101 µM; in assay [2], over 101 µM; in [3] it was at least 101 µM; in assay [4], at least 101 µM.
Consider `CC[C@H](C)[C@H](NC(=O)[C@H](CC(C)C)NC(=O)[C@H](CCCCN)NC(=O)[C@H](CCCCN)NC(=O)[C@@H](NC(=O)[C@H](CC(C)C)NC(=O)[C@H](CCCCN)NC(=O)[C@@H]1CCCN1C(=O)[C@@H](NC(=O)[C@H](CCSC)NC(=O)CNC(=O)[C@H](CC(C)C)NC(=O)[C@@H](N)Cc1ccccc1)[C@@H](C)CC)[C@@H](C)CC)C(=O)N[C@@H](CCCCN)C(=O)N[C@@H](C)C(=O)N[C@@H](Cc1ccccc1)C(=O)N[C@@H](CCCCN)C(=O)O` [FLGMIPKLIKKLIKAFK], for which the MIC in [5] was found to be 5 µM (≈ 9.94 µg/mL); in [6], 2.5 µM (≈ 4.97 µg/mL); in [7], 5 µM (≈ 9.94 µg/mL).
In the case of `CC[C@H](C)[C@H](NC(=O)[C@H](C)NC(=O)[C@H](C)NC(=O)[C@@H]1CCCN1C(=O)[C@@H](NC(=O)[C@H](CC(C)C)NC(=O)[C@H](CO)NC(=O)[C@H](CC(C)C)NC(=O)[C@@H](N)Cc1ccccc1)[C@@H](C)CC)C(=O)N[C@@H](CO)C(=O)N[C@@H](C)C(=O)N[C@H](C(=O)N[C@@H](CO)C(=O)N[C@@H](C)C(=O)N[C@@H](CC(C)C)C(=O)N[C@@H](C)C(=O)N[C@@H](CC(N)=O)C(=O)N[C@@H](Cc1cnc[nH]1)C(N)=O)C(C)C` [FLSLIPAAISAVSALANH], the minimum inhibitory concentration (MIC) in [5] was at least 33 µM; in [6] it was at least 132 µM; in assay [7], at least 264 µM.
Turning to `CC[C@H](C)[C@H](NC(=O)[C@H](Cc1cnc[nH]1)NC(=O)[C@@H]1CCCN1C(=O)[C@@H](NC(=O)[C@H](CC(C)C)NC(=O)[C@H](CO)NC(=O)[C@H](CC(C)C)NC(=O)[C@@H](N)Cc1ccccc1)[C@@H](C)CC)C(=O)N[C@H](C(=O)N[C@@H](CO)C(=O)NCC(=O)N[C@H](C(=O)N[C@@H](C)C(=O)N[C@@H](C)C(=O)N[C@@H](CC(C)C)C(=O)N[C@@H](C)C(=O)N[C@@H](CC(N)=O)C(=O)N[C@@H](Cc1cnc[nH]1)C(=O)N[C@@H](CC(C)C)C(N)=O)C(C)C)C(C)C` [FLSLIPHIVSGVAALANHL], the MIC in assay [5], in assay [6] and in assay [7] was at least 200 µM throughout.
With `CC[C@H](C)[C@H](NC(=O)[C@H](CO)NC(=O)[C@H](CC(N)=O)NC(=O)[C@@H](NC(=O)[C@H](Cc1ccccc1)NC(=O)[C@H](C)NC(=O)[C@H](CO)NC(=O)[C@H](C)NC(=O)[C@H](Cc1ccccc1)NC(=O)[C@H](CC(=O)O)NC(=O)[C@H](CCCCN)NC(=O)[C@H](C)NC(=O)CNC(=O)[C@@H](NC(=O)[C@H](CCCCN)NC(=O)[C@H](CC(C)C)NC(=O)[C@H](CCCCN)NC(=O)[C@H](CCC(=O)O)NC(=O)[C@H](CC(C)C)NC(=O)[C@H](Cc1ccccc1)NC(=O)CN)[C@@H](C)O)C(C)C)C(=O)N[C@@H](CCCCN)C(=O)NCC(=O)N[C@H](C(=O)O)[C@@H](C)O` [GFLEKLKTGAKDFASAFVNSIKGT], the MIC in assay [5], in assay [6] and in assay [7] was at least 202 µM each time.
As for `CC[C@H](C)[C@H](NC(=O)CN)C(=O)NCC(=O)NCC(=O)N[C@@H](C)C(=O)N[C@@H](CC(C)C)C(=O)N[C@@H](CC(C)C)C(=O)N[C@@H](CO)C(=O)N[C@@H](C)C(=O)NCC(=O)N[C@@H](CCCCN)C(=O)N[C@@H](C)C(=O)N[C@@H](C)C(=O)N[C@@H](CC(C)C)C(=O)N[C@@H](CCCCN)C(=O)NCC(=O)N[C@@H](CC(C)C)C(=O)N[C@@H](C)C(=O)N[C@@H](CCCCN)C(=O)NCC(=O)N[C@@H](CC(C)C)C(=O)N[C@@H](C)C(=O)N[C@@H](CCC(=O)O)C(=O)N[C@@H](Cc1cnc[nH]1)C(=O)N[C@@H](Cc1ccccc1)C(=O)N[C@@H](C)C(=O)N[C@@H](CC(N)=O)C(N)=O` [GIGGALLSAGKAALKGLAKGLAEHFAN], the results for the MIC in [5], in assay [6] and in assay [7] were 3 µM (≈ 7.6 µg/mL), 6 µM (≈ 15.2 µg/mL) and 12 µM (≈ 30.4 µg/mL), respectively.
Turning to `CC[C@H](C)[C@H](NC(=O)[C@H](CC(C)C)NC(=O)[C@H](CCC(N)=O)NC(=O)[C@@H](NC(=O)[C@H](C)NC(=O)CNC(=O)[C@H](CCCCN)NC(=O)[C@@H](NC(=O)[C@H](CC(C)C)NC(=O)[C@@H](NC(=O)[C@H](Cc1ccccc1)NC(=O)[C@@H](NC(=O)CN)C(C)C)[C@@H](C)O)[C@@H](C)CC)[C@@H](C)O)C(=O)NCC(=O)N[C@@H](CCCCN)C(=O)N[C@H](C(=O)N[C@@H](CC(C)C)C(=O)NCC(=O)N[C@@H](CCCCN)C(=O)N[C@@H](CCC(=O)O)C(=O)N[C@@H](CC(C)C)C(=O)NCC(=O)N[C@@H](CCCCN)C(=O)N[C@H](C(=O)NCC(=O)N[C@@H](CC(C)C)C(=O)N[C@@H](CCC(=O)O)C(=O)N[C@H](C(=O)N[C@@H](CCSC)C(=O)N[C@@H](C)C(=O)N[C@H]1CSSC[C@@H](C(=O)O)NC(=O)[C@H](CCC(N)=O)NC(=O)[C@H](CCCCN)NC(=O)[C@H]([C@@H](C)O)NC(=O)[C@H]([C@@H](C)CC)NC(=O)[C@H](CCCCN)NC1=O)[C@@H](C)CC)[C@@H](C)O)[C@@H](C)O` [GVFTLIKGATQLIGKTLGKELGKTGLEIMACKITKQC], the MIC in [1] turned out to be 4.06 µM (≈ 15.8 µg/mL); in [2], 4.06 µM (≈ 15.8 µg/mL); in [3], 2.03 µM (≈ 7.9 µg/mL); in assay [4], 4.06 µM (≈ 15.8 µg/mL).
As to `CC[C@H](C)[C@H](NC(=O)[C@H](C)NC(=O)[C@@H]1CCCN1C(=O)[C@H](CCCN=C(N)N)NC(=O)[C@@H](N)CC(C)C)C(=O)N[C@@H](CC(C)C)C(=O)N[C@H](C(=O)N[C@@H](CCCN=C(N)N)C(=O)N[C@H](C(=O)N[C@@H](CCCCN)C(N)=O)[C@@H](C)O)C(C)C` [LRPAILVRTK], the MIC in [5], in assay [6] and in [7] was at least 439 µM in each case.
For `CC[C@H](C)[C@H](NC(=O)[C@H](C)NC(=O)[C@@H](N)C(C)C)C(=O)N[C@@H](Cc1ccc(O)cc1)C(=O)NCC(=O)N[C@@H](CCCN=C(N)N)C(=O)N[C@@H](CC(=O)O)C(=O)N[C@@H](CC(=O)O)C(=O)N[C@@H](CCCN=C(N)N)C(=O)N[C@@H](CO)C(=O)N[C@@H](CC(=O)O)C(=O)N[C@H](C(=O)N[C@H]1CSSC[C@@H](C(=O)N[C@@H](CC(=O)O)C(=O)N[C@H](C(=O)N[C@@H](Cc2ccc(O)cc2)C(=O)O)[C@@H](C)O)NC(=O)[C@H](C(C)C)NC(=O)[C@H](CC(C)C)NC(=O)[C@H](Cc2c[nH]c3ccccc23)NC(=O)[C@H](CC(N)=O)NC(=O)[C@H](Cc2cnc[nH]2)NC(=O)[C@H](CCC(N)=O)NC(=O)[C@H](C(C)C)NC(=O)[C@H](CCC(N)=O)NC(=O)[C@H](CCCN=C(N)N)NC1=O)C(C)C` [VAIYGRDDRSDVCRQVQHNWLVCDTY], the MIC in assay [1] was over 64.3 µM; in assay [2], over 64.3 µM; in assay [3] it was at least 64.3 µM; in assay [4], at least 64.3 µM.
For the molecule `CC[C@H](C)[C@H](NC(=O)[C@H](Cc1ccccc1)NC(=O)[C@@H](NC(=O)[C@H](Cc1ccccc1)NC(=O)[C@H](CCCN=C(N)N)NC(=O)[C@H](CCCCN)NC(=O)[C@H](CCCN=C(N)N)NC(=O)[C@H](CCCCN)NC(=O)[C@H](Cc1ccccc1)NC(=O)[C@H](CC(C)C)NC(=O)[C@@H](NC(=O)[C@@H](N)Cc1ccc(O)cc1)C(C)C)[C@@H](C)CC)C(=O)O` [YVLFKRKRFIFI], the MIC in the assay on Bacillus subtilis was at least 200 µM; in assay [8], at least 50 µM; in [2], 200 µM (≈ 326 µg/mL); in [9] it was over 200 µM.

The values above are taken from DBAASP.
